Assay results: patent US20230167073A1 (Teijin Pharma Limited, priority 2020, published 2023)

Biological target: T1, Human TRPC6 (Homo sapiens, UniProt Q9Y210)
T1 construct: expressed in transfected cells
T1 sequence (Q9Y210 1-931): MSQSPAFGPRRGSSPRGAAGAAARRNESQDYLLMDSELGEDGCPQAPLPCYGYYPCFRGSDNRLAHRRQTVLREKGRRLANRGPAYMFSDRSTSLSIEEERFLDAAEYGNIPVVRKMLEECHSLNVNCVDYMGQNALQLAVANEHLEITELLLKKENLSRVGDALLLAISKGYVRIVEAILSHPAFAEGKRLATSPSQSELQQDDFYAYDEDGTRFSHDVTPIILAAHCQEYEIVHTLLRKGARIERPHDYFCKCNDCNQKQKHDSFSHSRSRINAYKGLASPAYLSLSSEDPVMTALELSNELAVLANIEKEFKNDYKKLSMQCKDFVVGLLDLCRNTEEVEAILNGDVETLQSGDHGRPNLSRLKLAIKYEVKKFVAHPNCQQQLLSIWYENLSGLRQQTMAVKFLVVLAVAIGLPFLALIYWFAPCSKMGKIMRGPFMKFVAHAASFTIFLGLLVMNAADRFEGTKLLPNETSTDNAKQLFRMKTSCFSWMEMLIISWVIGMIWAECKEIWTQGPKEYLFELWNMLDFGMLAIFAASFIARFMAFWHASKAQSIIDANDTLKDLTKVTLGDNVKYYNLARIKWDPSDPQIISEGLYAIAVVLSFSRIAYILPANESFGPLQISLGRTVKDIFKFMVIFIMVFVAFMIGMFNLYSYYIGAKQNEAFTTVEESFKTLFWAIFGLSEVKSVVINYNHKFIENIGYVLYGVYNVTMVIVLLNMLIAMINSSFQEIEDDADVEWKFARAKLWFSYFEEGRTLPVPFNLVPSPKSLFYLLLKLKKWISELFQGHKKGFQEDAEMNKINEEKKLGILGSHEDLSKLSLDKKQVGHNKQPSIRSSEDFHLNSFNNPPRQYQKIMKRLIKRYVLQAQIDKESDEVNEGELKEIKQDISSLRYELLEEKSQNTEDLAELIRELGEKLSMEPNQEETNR
Assay: Evaluation of TRPC6 channel inhibitory activity (1), FLIPR Calcium 5 Assay Kit, OAG stimulation (Compound Nos. 1-1293)
Format: cell-based
Details: not given
In short: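 Calcium influx read by FLIPR fluorescence in cells stably expressing human TRPC6, dye-loaded 30 min. Compounds preincubated 20 min, then OAG stimulation at 30 μM final. Inhibition fitted by four-parameter logistic regression to give pIC50, reported as +/++/+++ categories.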

Question: `Cc1cc(Oc2cc(C#N)ccc2-c2ncc(CN)cn2)cc(N2C3CCC2CC3)n1` [compound 826, 4-[5-(aminomethyl)pyrimidin-2-yl]-3-[2-(7-azabicyclo[2.2.1]heptan-7-yl)-6-methylpyridin-4-yl]oxybenzonitrile] was tested. Which IC50 did it give?
Answer: < 0.01 µM

Question: How did the IC50 turn out when `Cc1nc(Oc2cc(C#N)ccc2-c2ncc(CN)cn2)cc(N2C3CCC2CC3)n1` [compound 672, 4-[5-(aminomethyl)pyrimidin-2-yl]-3-[6-(7-azabicyclo[2.2.1]heptan-7-yl)-2-methylpyrimidin-4-yl]oxybenzonitrile] was run?
Answer: < 0.01 µM

Same assay, conditions: Human TRPC6 stably-expressing cells, OAG 30 μM, FLIPR Calcium 5 Assay Kit; read-out: Inhibitory activity (pIC50 class) (converted)

Question: `Cc1nc(Oc2cc(C#N)ccc2-c2ncc(CN)cn2)cc(N2CCOCC2)n1` [compound 467, 4-[5-(aminomethyl)pyrimidin-2-yl]-3-(2-methyl-6-morpholin-4-ylpyrimidin-4-yl)oxybenzonitrile] was tested. Which IC50 did it give?
Answer: < 0.01 µM

Question: Which IC50 does the source give for `Cc1nc(Oc2cc(C#N)ccc2-c2ncc(CN)cn2)cc(N2CCC(F)CC2)n1` [compound 669, 4-[5-(aminomethyl)pyrimidin-2-yl]-3-[6-(4-fluoropiperidin-1-yl)-2-methylpyrimidin-4-yl]oxybenzonitrile] here?
Answer: 0.01 to 1 µM

Question: `N#Cc1ccc(-n2cc(CCN)cn2)c(Oc2cnnc(N3CCCCC3)c2)c1` [Compound 283, 4-[4-(2-aminoethyl)pyrazol-1-yl]-3-(6-piperidin-1-ylpyridazin-4-yl)oxybenzonitrile] was tested. Which IC50 did it give?
Answer: 0.01 to 1 µM

Question: How did the IC50 turn out when `N#Cc1ccc(-c2ncc([C@H](O)CN)cn2)c(Oc2cc(C3CC3)nn2CC(F)(F)F)c1` [compound 411, 4-[5-[(1S)-2-amino-1-hydroxyethyl]pyrimidin-2-yl]-3-[5-cyclopropyl-2-(2,2,2-trifluoroethyl)pyrazol-3-yl]oxybenzonitrile] was run?
Answer: 0.01 to 1 µM

Question: `Cn1nc(C2CC2)cc1Oc1cc(C#N)ccc1-c1ccc(C(O)C(C)(C)N)cn1` (stereo not shown) [compound 335, 4-[5-(2-amino-1-hydroxy-2-methylpropyl)pyridin-2-yl]-3-(5-cyclopropyl-2-methylpyrazol-3-yl)oxybenzonitrile] was tested. Which IC50 did it give?
Answer: < 0.01 µM

Question: `Cc1nc(Oc2cc(C#N)ccc2-c2ccc(CCN)cc2)cc(N2CCCC2)n1` [Compound 25, 4-[4-(2-aminoethyl)phenyl]-3-(2-methyl-6-pyrrolidin-1-ylpyrimidin-4-yl)oxybenzonitrile] was tested. Which IC50 did it give?
Answer: < 0.01 µM

Question: With `Cc1cc(Oc2cc(C#N)ccc2-c2ccc(C[C@@H](N)C(=O)O)cn2)cc(N2CCOCC2)n1` [compound 614, (2R)-2-amino-3-[6-[4-cyano-2-(2-methyl-6-morpholin-4-ylpyridin-4-yl)oxyphenyl]pyridin-3-yl]propanoic acid] as the compound, how does the IC50 read?
Answer: > 1 µM

Question: For `Cc1nc(Oc2cc(C#N)ccc2-c2nc([C@H](O)CN)cs2)cc(-c2ccccc2)n1` [Compound 223, 4-[4-[(1R)-2-amino-1-hydroxyethyl]-1,3-thiazol-2-yl]-3-(2-methyl-6-phenylpyrimidin-4-yl)oxybenzonitrile], which IC50 is on record?
Answer: 0.01 to 1 µM

Question: With `Cn1nc(-c2ccc(F)cn2)cc1Oc1cc(C#N)ccc1-c1ncc(CN)cn1` [compound 651, 4-[5-(aminomethyl)pyrimidin-2-yl]-3-[5-(5-fluoropyridin-2-yl)-2-methylpyrazol-3-yl]oxybenzonitrile] as the compound, how does the IC50 read?
Answer: < 0.01 µM

Question: `Cn1nc(N2CCOCC2)cc1C(=O)c1cc(C#N)ccc1-c1ccc(CN)cn1` [compound 1029, 4-[5-(aminomethyl)pyridin-2-yl]-3-(2-methyl-5-morpholin-4-ylpyrazole-3-carbonyl)benzonitrile] was tested. Which IC50 did it give?
Answer: < 0.01 µM

Question: `N#Cc1ccc(-c2ncc(CN)cn2)c(Oc2cc(Cl)nnc2N2CCCCC2)c1` [compound 816, 4-[5-(aminomethyl)pyrimidin-2-yl]-3-(6-chloro-3-piperidin-1-ylpyridazin-4-yl)oxybenzonitrile] was tested. Which IC50 did it give?
Answer: > 1 µM

Question: With `Cc1cnc(N2CCOCC2)cc1Oc1cc(C#N)ccc1-c1ncc(CN)cn1` [compound 901, 4-[5-(aminomethyl)pyrimidin-2-yl]-3-(5-methyl-2-morpholin-4-ylpyridin-4-yl)oxybenzonitrile] as the compound, how does the IC50 read?
Answer: > 1 µM

Question: How did the IC50 turn out when `Cn1nc(C2CC2)cc1Oc1cc(C#N)ccc1-c1ncc(CC(C)(C)N)cn1` [compound 477, 4-[5-(2-amino-2-methylpropyl)pyrimidin-2-yl]-3-(5-cyclopropyl-2-methylpyrazol-3-yl)oxybenzonitrile] was run?
Answer: < 0.01 µM

Question: How did the IC50 turn out when `Cc1nc(Oc2cc(C#N)ccc2-c2ccc(CC(C)(C)N)cc2)cc(N2CCOCC2)n1` [Compound 247, 4-[4-(2-amino-2-methylpropyl)phenyl]-3-(2-methyl-6-morpholin-4-ylpyrimidin-4-yl)oxybenzonitrile] was run?
Answer: < 0.01 µM

Question: For `Cn1nc(-c2ccccc2)cc1Oc1cc(C#N)ccc1-n1cc(C(O)CN)cn1` (stereo not shown) [Compound 204, 4-[4-(2-amino-1-hydroxyethyl)pyrazol-1-yl]-3-(2-methyl-5-phenylpyrazol-3-yl)oxybenzonitrile], which IC50 is on record?
Answer: < 0.01 µM

Question: `Cn1nc(-c2cccnn2)cc1Oc1cc(C#N)ccc1-c1ncc(CN)cn1` [compound 934, 4-[5-(aminomethyl)pyrimidin-2-yl]-3-(2-methyl-5-pyridazin-3-ylpyrazol-3-yl)oxybenzonitrile] was tested. Which IC50 did it give?
Answer: 0.01 to 1 µM

Question: `Cc1nc(Oc2cc(C#N)ccc2-c2nc(C)c(C(O)CN(C)C)s2)cc(-c2ccccc2)n1` (stereo not shown) [Compound 98, 4-[5-[2-(dimethylamino)-1-hydroxyethyl]-4-methyl-1,3-thiazol-2-yl]-3-(2-methyl-6-phenylpyrimidin-4-yl)oxybenzonitrile] was tested. Which IC50 did it give?
Answer: > 1 µM

Question: How did the IC50 turn out when `Cn1nc(C2CC2)cc1Oc1cc(C#N)ccc1-c1ncc(CCN)cn1` [compound 317, 4-[5-(2-aminoethyl)pyrimidin-2-yl]-3-(5-cyclopropyl-2-methylpyrazol-3-yl)oxybenzonitrile] was run?
Answer: < 0.01 µM

Question: With `Cn1nc(N2CCCC2)cc1Oc1cc(C#N)ccc1-c1ccc(CN)cn1` [compound 622, 4-[5-(aminomethyl)pyridin-2-yl]-3-(2-methyl-5-pyrrolidin-1-ylpyrazol-3-yl)oxybenzonitrile] as the compound, how does the IC50 read?
Answer: < 0.01 µM

Question: `Cn1nc(-c2ccccc2)cc1Oc1cc(C#N)ccc1-n1cc(N2CCCNCC2=O)cn1` [Compound 218, 3-(2-methyl-5-phenylpyrazol-3-yl)oxy-4-[4-(2-oxo-1,4-diazepan-1-yl)pyrazol-1-yl]benzonitrile] was tested. Which IC50 did it give?
Answer: > 1 µM

Question: With `Cc1nc(-c2ccccc2)cn1Cc1cc(C#N)ccc1-c1ncc(CCN)cn1` [compound 1137, 4-[5-(2-aminoethyl)pyrimidin-2-yl]-3-[(2-methyl-4-phenylimidazol-1-yl)methyl]benzonitrile] as the compound, how does the IC50 read?
Answer: < 0.01 µM

Question: With `CN(C)c1cc(Oc2cc(F)ccc2-c2ccc(CCN)cn2)n(C)n1` [compound 1000, 5-[2-[5-(2-aminoethyl)pyridin-2-yl]-5-fluorophenoxy]-N,N,1-trimethylpyrazole-3-amine] as the compound, how does the IC50 read?
Answer: < 0.01 µM

Question: How did the IC50 turn out when `Cn1nc(C2CCOCC2)cc1Oc1cc(F)ccc1-c1ccc(CCN)cn1` [compound 1010, 2-[6-[4-fluoro-2-[2-methyl-5-(oxan-4-yl)pyrazol-3-yl]oxyphenyl]pyridin-3-yl]ethanamine] was run?
Answer: < 0.01 µM

Question: `Cc1nn(CC(F)F)c(C)c1Oc1cc(C#N)ccc1-c1ncc(CCN)cn1` [compound 940, 4-[5-(2-aminoethyl)pyrimidin-2-yl]-3-[1-(2,2-difluoroethyl)-3,5-dimethylpyrazol-4-yl]oxybenzonitrile] was tested. Which IC50 did it give?
Answer: > 1 µM

Question: `N#Cc1ccc(-n2cc(CCN)cn2)c(Sc2cnnc(N3CCOCC3)c2)c1` [compound 1245, 4-[4-(2-aminoethyl)pyrazol-1-yl]-3-(6-morpholin-4-ylpyridazin-4-yl)sulfanylbenzonitrile] was tested. Which IC50 did it give?
Answer: 0.01 to 1 µM

Question: For `Cn1nc(C2CCOC2)cc1Oc1cc(C#N)ccc1-c1ncc(CCN)cn1` (stereo not shown) [compound 495, 4-[5-(2-aminoethyl)pyrimidin-2-yl]-3-[2-methyl-5-(oxolan-3-yl)pyrazol-3-yl]oxybenzonitrile], which IC50 is on record?
Answer: 0.01 to 1 µM

Question: With `Cn1nc(C2CC2)cc1Oc1cc(C#N)ccc1-c1ccc(CN)n2cnnc12` [compound 641, 4-[5-(aminomethyl)-[1,2,4]triazolo[4,3-a]pyridin-8-yl]-3-(5-cyclopropyl-2-methylpyrazol-3-yl)oxybenzonitrile] as the compound, how does the IC50 read?
Answer: 0.01 to 1 µM

Question: For `Cc1nc(Sc2cc(C#N)ccc2-n2cc(CCN)cn2)cc(N2CCCCC2)n1` [compound 1252, 4-[4-(2-aminoethyl)pyrazol-1-yl]-3-(2-methyl-6-piperidin-1-ylpyrimidin-4-yl)sulfanylbenzonitrile], which IC50 is on record?
Answer: 0.01 to 1 µM

Question: Which IC50 does the source give for `Cc1nc(Oc2cc(C#N)ccc2-n2cc3c(n2)CNCC3)cc(N2CCCCC2)n1` [compound 746, 3-(2-methyl-6-piperidin-1-ylpyrimidin-4-yl)oxy-4-(4,5,6,7-tetrahydropyrazolo[3,4-c]pyridin-2-yl)benzonitrile] here?
Answer: > 1 µM
